This is an account of results in ChEMBL document CHEMBL1135071, “Di- and trisubstituted pyrazolo[1,5-a]pyridine derivatives: synthesis, dopamine receptor binding and ligand efficacy” (Bioorg Med Chem Lett, 2002).

SMILES strings stand for the structures.

Assay [1] deals with T1, D(2) dopamine receptor (Homo sapiens, UniProt P14416). Description: In vitro binding affinity at human cloned dopamine receptor D2 (long) stably expressed in CHO cells by [3H]-Spiperone displacement. It is filed as cell-based.
T1 sequence (P14416 whole entry): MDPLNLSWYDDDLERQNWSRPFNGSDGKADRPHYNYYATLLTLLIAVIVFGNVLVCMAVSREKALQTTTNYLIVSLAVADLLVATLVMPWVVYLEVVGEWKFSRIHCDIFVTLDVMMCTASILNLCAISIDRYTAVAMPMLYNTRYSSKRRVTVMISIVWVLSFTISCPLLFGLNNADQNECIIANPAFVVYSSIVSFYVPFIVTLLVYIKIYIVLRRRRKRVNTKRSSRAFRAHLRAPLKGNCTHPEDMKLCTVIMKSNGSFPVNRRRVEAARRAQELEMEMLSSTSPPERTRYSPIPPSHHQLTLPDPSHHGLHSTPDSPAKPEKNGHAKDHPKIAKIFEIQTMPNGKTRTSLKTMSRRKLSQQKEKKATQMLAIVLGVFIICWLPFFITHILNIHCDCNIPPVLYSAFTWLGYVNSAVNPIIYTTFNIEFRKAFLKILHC
In assay [2] the target is T1, D(2) dopamine receptor. Description: In vitro binding affinity at human cloned dopamine receptor D2 (short) stably expressed in CHO cells by [3H]spiperone displacement. In kind it is cell-based.
The target of assay [3] is T2, D(4) dopamine receptor (Homo sapiens, UniProt P21917).
T2 sequence (P21917 whole entry): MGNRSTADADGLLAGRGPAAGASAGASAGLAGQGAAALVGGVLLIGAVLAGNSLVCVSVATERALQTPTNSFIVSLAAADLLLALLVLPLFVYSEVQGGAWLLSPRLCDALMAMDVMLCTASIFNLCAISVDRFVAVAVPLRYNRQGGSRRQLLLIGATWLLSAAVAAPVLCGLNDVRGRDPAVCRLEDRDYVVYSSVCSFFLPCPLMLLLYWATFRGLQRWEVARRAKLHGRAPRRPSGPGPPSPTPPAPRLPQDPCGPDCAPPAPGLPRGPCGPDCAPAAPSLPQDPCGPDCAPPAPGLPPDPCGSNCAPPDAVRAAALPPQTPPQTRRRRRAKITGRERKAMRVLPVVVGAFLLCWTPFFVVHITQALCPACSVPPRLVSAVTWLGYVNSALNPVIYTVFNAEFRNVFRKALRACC
Description: In vitro binding affinity at human cloned dopamine receptor D4 stably expressed in CHO cells by [3H]spiperone displacement. In kind it is cell-based.

The target of the next assay is D(3) dopamine receptor (Homo sapiens, UniProt P35462). Description: In vitro binding affinity at human cloned dopamine receptor D3 stably expressed in CHO cells by [3H]spiperone displacement. It is filed as cell-based.
Chain of D(3) dopamine receptor (P35462 whole entry): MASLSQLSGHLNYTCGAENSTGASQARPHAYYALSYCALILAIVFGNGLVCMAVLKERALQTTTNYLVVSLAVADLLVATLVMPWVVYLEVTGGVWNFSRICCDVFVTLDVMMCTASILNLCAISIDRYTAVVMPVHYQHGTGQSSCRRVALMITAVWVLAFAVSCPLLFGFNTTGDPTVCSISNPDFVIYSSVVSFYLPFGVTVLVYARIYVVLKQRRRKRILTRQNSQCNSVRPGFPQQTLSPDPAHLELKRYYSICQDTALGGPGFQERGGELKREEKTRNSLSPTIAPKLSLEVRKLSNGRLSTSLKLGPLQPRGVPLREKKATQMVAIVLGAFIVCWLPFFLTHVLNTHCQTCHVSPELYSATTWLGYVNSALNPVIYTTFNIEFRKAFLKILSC
The nature of assay [4]: Compound was tested in vitro for its ability to compete with [3H]-ketanserin at 5-hydroxytryptamine 2 receptor in porcine brain homogenate. In kind it is tissue-based.
For assay [5], the target named is T3, D(4) dopamine receptor (Homo sapiens) (UniProt P21917).
T3 sequence (whole entry): T2 sequence (P21917 whole entry)
Description: Intrinsic activity as rate of incorporation of [3H]thymidine in human D4.2 receptor established in mitogenesis assay relative to quinpirole. It is filed as functional.

The target of assay [6] is T1, D(2) dopamine receptor. Description: Binding affinity of compound was tested in vitro for its ability to compete with [3H]spiperone radioligand at cloned human Dopamine receptor D2L stably expressed in CHO cells. In kind it is cell-based.
Assay [7] addresses T2, D(4) dopamine receptor. Description: Tested for the effective concentration against human D4.2 receptor in CHO 10001 cells established in mitogenesis assay. In kind it is functional, cell-based.

As for `Cc1nn2c(-c3ccccc3)cccc2c1CN1CCN(c2ccc(Cl)cc2)CC1`, the Ki on D(2) dopamine receptor [1] came out at 28 µM; at D(2) dopamine receptor [2] it was 24 µM; on D(4) dopamine receptor [3], 0.037 µM; on D(3) dopamine receptor, 3.1 µM.

Regarding `Cc1nn2c(-c3ccc(F)cc3)cccc2c1CN1CCN(c2ccc(Cl)cc2)CC1`, the Ki at D(2) dopamine receptor [1] worked out at 14 µM; on D(2) dopamine receptor [2], 16 µM; on D(4) dopamine receptor [3] it was 0.087 µM; at D(3) dopamine receptor it was 3.8 µM.

For `O=Cc1cccc2c(CN3CCN(c4ccc(Cl)cc4)CC3)cnn12`, the Ki on D(2) dopamine receptor [1] is 9.5 µM; at D(2) dopamine receptor [2], 9.2 µM; at D(4) dopamine receptor [3], 0.0026 µM; at D(3) dopamine receptor it was 5.9 µM.

On to `Cc1nn2c(N3CCN(Cc4ccccc4)CC3)cccc2c1CN1CCN(c2ccc(Cl)cc2)CC1`, for which the Ki at D(2) dopamine receptor [1] was 0.3 µM; on D(2) dopamine receptor [2], 0.12 µM; on D(4) dopamine receptor [3], 0.026 µM; on D(3) dopamine receptor, 0.27 µM.

As to `N#Cc1cccc2c(CN3CCN(c4ccc(Cl)cc4)CC3)cnn12`, the Ki in assay [4] is 0.18 µM; on D(2) dopamine receptor [2], 45 µM; on D(2) dopamine receptor [6], 44 µM; at D(4) dopamine receptor [3], 0.0015 µM; at D(3) dopamine receptor, 26 µM. For the same compound, in assay [5], the Intrinsic activity is 31%. In addition, the response at D(4) dopamine receptor [7] was half-maximal at 0.0015 µM (EC50).

As to `C[Si](C)(C)c1cccc2c(CN3CCN(c4ccc(Cl)cc4)CC3)cnn12`, the Ki at D(2) dopamine receptor [1] was found to be 3.1 µM; on D(2) dopamine receptor [2], 2.8 µM; on D(4) dopamine receptor [3], 0.0028 µM; at D(3) dopamine receptor, 2 µM.

As to `OCc1cccn2ncc(CN3CCN(c4ccc(Cl)cc4)CC3)c12`, the Ki on D(2) dopamine receptor [1] was 56 µM; on D(2) dopamine receptor [2], 79 µM; on D(4) dopamine receptor [3], 0.11 µM; on D(3) dopamine receptor, > 100 µM.

Take `OCc1ccc2c(CN3CCN(c4ccc(Cl)cc4)CC3)cnn2c1`: the Ki on D(2) dopamine receptor [1] was 28 µM; on D(2) dopamine receptor [2] it was 22 µM; at D(4) dopamine receptor [3], 0.02 µM; on D(3) dopamine receptor it was 2.6 µM.

As to `C#Cc1cccc2c(CN3CCN(c4ccc(Cl)cc4)CC3)c(C)nn12`, the Ki at D(2) dopamine receptor [1] stood at 21 µM; at D(2) dopamine receptor [2], 25 µM; on D(4) dopamine receptor [3] it was 0.0015 µM; at D(3) dopamine receptor it was 17 µM.

For `Clc1ccc(N2CCN(Cc3cnn4c(-c5ccccc5)cccc34)CC2)cc1`, the Ki on D(2) dopamine receptor [1] came to 5.4 µM; at D(2) dopamine receptor [2] it was 2.8 µM; on D(4) dopamine receptor [3], 0.0076 µM; at D(3) dopamine receptor, 0.84 µM.

On to `Cc1cccc2c(CN3CCN(c4ccc(Cl)cc4)CC3)cnn12`, for which the Ki on D(2) dopamine receptor [1] turned out to be 4.9 µM; on D(2) dopamine receptor [2], 5 µM; at D(3) dopamine receptor it was 3.8 µM.

With `Cc1nn2c(C#N)cccc2c1CN1CCN(c2ccc(Cl)cc2)CC1`, the Ki was 1 µM in assay [4]; 58 µM at D(2) dopamine receptor [2]; 59 µM on D(2) dopamine receptor [6]; 0.0023 µM at D(4) dopamine receptor [3]; 21 µM on D(3) dopamine receptor. The compound also had an Intrinsic activity in assay [5] of 26%. The compound further returned an EC50 on D(4) dopamine receptor [7] of 0.012 µM.

With `C#Cc1cccc2c(CN3CCN(c4ccc(Cl)cc4)CC3)cnn12`, the values for the Ki on D(2) dopamine receptor [1], on D(2) dopamine receptor [2] and on D(3) dopamine receptor were 3.7 µM, 6.2 µM and 4.6 µM, respectively.

As to `Cc1cccn2ncc(CN3CCN(c4ccc(Cl)cc4)CC3)c12`, the Ki stood at 13 µM on D(2) dopamine receptor [1], 12 µM on D(2) dopamine receptor [2] and 9.4 µM at D(3) dopamine receptor.

For `Clc1ccc(N2CCN(Cc3cnn4c(N5CCN(Cc6ccccc6)CC5)cccc34)CC2)cc1`, the Ki on D(2) dopamine receptor [1] turned out to be 0.64 µM; on D(2) dopamine receptor [2] it was 0.4 µM; on D(4) dopamine receptor [3], 0.18 µM; at D(3) dopamine receptor it was 0.41 µM.

Regarding `Fc1ccc(-c2cccc3c(CN4CCN(c5ccc(Cl)cc5)CC4)cnn23)cc1`, the Ki at D(2) dopamine receptor [1] amounted to 15 µM; on D(2) dopamine receptor [2], 15 µM; on D(4) dopamine receptor [3] it was 0.029 µM; on D(3) dopamine receptor it was 5.7 µM.
